In US20120083473A1, “TREATMENT OF CONDITIONS BY TOLL-LIKE RECEPTOR MODULATORS” (priority 2010, published 2012):
“Also recorded” adds a separate entry of the source.

What was measured:
[1] = system: human monocytes (Mo); assay: Cytokine/chemokine secretion by TMX-tolerant human monocytes (ELISA); format: cell-based
Procedure: Cell Culture and treatments. Monocytes (Mo) were obtained from buffycoats collected from healthy donors as previously described (Porta C et al, PNAS 2009). Cells were incubated in RPMI 1640 medium, containing 10% fetal bovine serum, 2 mM glutamine and 100 U/ml of penicillin-streptomycin. The concentrations for the different treatments were as follows: LPS (100 ng/ml) (Lipopolysaccharide from Salmonella Abortus Equi S-form, Alexis), CpG (1 microg/ml), Pam3CSK (2 microg/ml), Poly I:C (10 microg/ml), Loxorubine (100 microM), flagellin (100 ng/ml). To induce TMX tolerance, cells were incubated in the presence of TMX (10 microM) for 20 hrs, washed and maintained in RPMI medium for 2 hrs and then re-challenged with TMX (10 microM) for 4 hrs. To induce TMX-tolerization (T/M) cells were treated with TMX for 20 hrs, washed and then maintained in medium for additional 6 hours, without TMX re-challenge. To induce M1-activation cells were incubated in medium for 20 hrs, washed, left in medium for 2 hrs and finally stimulated with TMX (10 microM) for 4 hrs. Control cells (M/M) were cultured in medium for the entire period of the experiment. For gene expression analysis, total RNA was extracted from TMX treated and untreated cells with trizol (Invitrogen), according to the manufacturer's instructions. To analyze cytokines and chemokines production supernatants were collected 24 hrs after the second challenge with TMX.
ELISA. Cell-free supernatants were tested by ELISA for the indicated cytokines/chemokines. Human TNF-alpha, IL-6, IL-1beta, IL-10, CCL17 and CCL22 ELISA kits were purchased from R&D Systems (Minneapolis, Minn.).

[2] = system: rat collagen-induced arthritis (CIA) model; assay: Rat collagen-induced arthritis (CIA) model; format: in vivo; settings: for day of definite disease onset / bone erosion score / cumulative arthritis score / cartilage erosion score / joint inflammation score / proteoglycan loss score: mean±SD; for cartilage erosion score / joint inflammation score / proteoglycan loss score: scale 0-3
Procedure: Collagen-induced arthritis was induced in 9 weeks old female Lewis rats using a two-steps immunization protocol. On day 0, rats were immunized by intradermal injection of approximately 1 ml of 1 mg/ml bovine type II collagen (Chondrex) emulsified in Incomplete Freund's adjuvant (Difco Laboratories) at several sites at the back. Arthritis development was accelerated by an intradermal booster immunization in the back and tail-base with 100 µg bovine type II collagen (Chondrex) in IFA (Difco Laboratories) at day 7. For immunization, rats were anesthetized by inhalation of 3-4% isoflurane in a mixture of oxygen and nitrous oxide.
Rats were evaluated 6 times per week (once during weekends) for arthritis severity using a macroscopic scoring system of 0-4 for each paw as detailed below:
0=no signs of arthritis 0.5=unloading of the paw and/or light redness of ankle joint 1=redness and mild swelling of the ankle joint 2=redness and swelling of paw 3=severe redness and swelling of entire paw including digits 4=maximally swollen paw, often involvement of multiple joints and extending toward knee joint.
The total clinical score of an individual rat is defined as the sum of the clinical scores of all four paws for each day. At the end of the study, the cumulative arthritis score was calculated for each rat. This cumulative arthritis score is defined as the sum of the total clinical scores obtained from day 0 till day 24.
The day of disease is defined as the first day of three consecutive days on which a total clinical arthritis score of more than 0 was observed.
The swelling of the hind paws was measured during weekdays with a laser scan micrometer (Mitutoyo, LSM-503S/6200). At the end of the study, the cumulative paw swelling was calculated for each rat as follows: a baseline value was determined by averaging the paw thickness values of day 0-9 when no signs of arthritis were visible in the vehicle-treated group. Next, increase in paw thickness was calculated by subtracting the baseline value from the paw thickness values obtained on day 10-24 (delta value). Cumulative paw swelling is defined as the sum of the delta paw thickness values from day 10 till 24.
Left ankle joints were decalcified in a solution of 10% EDTA in distilled water, pH 7.4 for at least two months. After a wash in running tap water for 24 hours, the joints were embedded in paraffin and cut into 5 μm sections.
Joint inflammation was scored on Haematoxylin Phloxine Saffron (HPS) stained sections. The inflammation score is based on the amount of inflammatory cells infiltrated into the joint on a scale of 0-3:
0=no inflammation 1=inflammatory cells in muscle layer (surrounding tissue) 2=infiltration of inflammatory cells in the joint 3=severe infiltration of inflammatory cells in the joint
Cartilage erosion was also scored on HPS stained sections. Erosion was scored in three compartments between tarsal bones and the tibia bone as the disappearance of cartilage or chondrocyte death on a scale of 0-3:
0=no erosion 1=erosion in 1 joint compartment 2=erosion in 2 joint compartments 3=erosion in 3 joint compartments
Proteoglycan (PG) loss was scored on Saffranin 0/Fast green-stained sections on a scale of 0-3, indicating increasing loss of staining from the cartilage tissue:
0=no PG loss 1=1-33% loss of PG staining 2=34-66% loss of PG staining 3=67%-complete loss of PG staining
Bone erosion was scored on HPS stained sections. Erosion was scored at four different locations in two compartments as the number of osteoclasts per field (average value is given in Appendix 8): […]

[3] = TMX-tolerized cells re-challenged with TMX or 1V209

With `COCCOc1nc(N)c2nc(O)n(Cc3ccc(C(=O)NCCOCCOCCOCCOCCOCCOCCn4cc(CCC(=O)O)nn4)cc3)c2n1` [Compound 2] the “levels of IL-10 in the supernatant of TMX-tolerant monocytes” value [1] was “decreased”, the “secretion of selected M2 markers (CCL17 and CCL22)” value ([1]; TMX-tolerized Mo from 2 out of 4 healthy donors) was “significantly augmented” and the “CCL17 and CCL22 secretion” value [1, 3] was “induction”. For the same molecule, the “TNFalpha and IL-6 secretion” value [1, 3] was “inhibition”, the “IL-10 production by Compound 2-conditioned cells” value ([1]; as stated in comparison of human and mouse data) was “increased” and the “TNF and IL-6 secretion” value ([1]; cells tolerized with TMX and re-challenged with TLR agonists, except for LPS) was “decreased”. For the same molecule, the “IL-1beta production in TMX-tolerized cells” value ([1]; re-challenged with TLR agonists) was “all TLR agonists promote IL-1beta production”, the “day on which disease incidence of 100% was reached” value (shortened to “day … of 100% was reached”) ([2]; 1.6 mg/kg) was 11 days and the “day of definite disease onset” value ([2]; 1.6 mg/kg i.p. once daily from day 10) was 10.3 ± 0.5 days. The bone erosion score ([2]; 1.6 mg/kg) was 0.63±0.17, the cumulative arthritis score ([2]; 1.6 mg/kg) was 77.3±11.9 a.u and the cartilage erosion score ([2]; 1.6 mg/kg) was 2.09±0.65. For the same molecule, the joint inflammation score ([2]; 1.6 mg/kg) was 2.69±0.37, the proteoglycan loss score ([2]; 1.6 mg/kg) was 2.41±0.40 and the “day … of 100% was reached” value ([2]; 3.2 mg/kg) was 13 days. For the same molecule, the “day of definite disease onset” value ([2]; 3.2 mg/kg i.p. once daily from day 10) was 10.4 ± 1.1 days, the bone erosion score ([2]; 3.2 mg/kg) was 0.62±0.09 and the cumulative arthritis score ([2]; 3.2 mg/kg) was 83.3±12.2 a.u. The cartilage erosion score ([2]; 3.2 mg/kg) was 2.34±0.68, the joint inflammation score ([2]; 3.2 mg/kg) was 2.66±0.33 and the proteoglycan loss score ([2]; 3.2 mg/kg) was 2.53±0.21. The “day … of 100% was reached” value ([2]; 6.3 mg/kg) was 11 days, the “day of definite disease onset” value ([2]; 6.3 mg/kg i.p. once daily from day 10) was 10.4 ± 0.5 days and the bone erosion score ([2]; 6.3 mg/kg) was 0.69±0.13. For the same molecule, the cumulative arthritis score ([2]; 6.3 mg/kg) was 81.1±14.6 a.u, the cartilage erosion score ([2]; 6.3 mg/kg) was 2.06±0.65 and the joint inflammation score ([2]; 6.3 mg/kg) was 2.69±0.32. For the same molecule, the proteoglycan loss score ([2]; 6.3 mg/kg) was 2.47±0.34, the “day … of 100% was reached” value ([2]; 12.6 mg/kg) was 15 days and the “day of definite disease onset” value ([2]; 12.6 mg/kg i.p. once daily from day 10) was 11.5 ± 2.0 days. For the same molecule, the “total clinical arthritis score versus vehicle, end of the study” value ([2]; 12.6 mg/kg, day 22, 23 and 24 (p=0.036, p=0.017, p=0.044)) was “statistically exceeded that of the vehicle group”, the joint inflammation score ([2]; 12.6 mg/kg, left ankle histology) was 2.41±0.42 and the cumulative arthritis score ([2]; 12.6 mg/kg, day 0 till day 24) was 77.6±19.9 a.u. The bone erosion score ([2]; 12.6 mg/kg, osteoclast score 0-3) was 0.56±0.14, the “cumulative hind paw swelling versus vehicle” value ([2]; 12.6 mg/kg, p=0.003 left, p=0.004 right hind paw) was “significantly reduced; also recorded: reduction” and the “proteoglycan loss versus vehicle” value ([2]; 12.6 mg/kg, p=0.026) was “significantly diminished; also recorded: significant suppression”. The cartilage erosion score ([2]; 12.6 mg/kg) was 1.81±0.91, the proteoglycan loss score ([2]; 12.6 mg/kg) was 1.97±0.59 and the “clinical signs of arthritis / total clinical arthritis score versus vehicle, initial phase” value ([2]; 12.6 mg/kg, significant on day 13 and 16 (p=0.018, p=0.011)) was “initially suppressed”. For the same molecule, the “development of clinical signs of arthritis over time” value ([2]; 6.3, 3.2 and 1.6 mg/kg groups) was “comparable to the vehicle group”, the “arthritis development compared to the vehicle group” value ([2]; 6.3, 3.2 or 1.6 mg/kg) was “did not significantly reduce” and the paw thickness ([2]; Compound 2 12.6, 6.3, 3.2, 1.6 mg/kg) was “dose-dependent reduction”. The disease incidence ([2]; all Compound 2 groups (12.6, 6.3, 3.2, 1.6 mg/kg), till the end of the study) was 100%, the body weight ([2]; different concentrations Compound 2) was “decreased gradually after disease onset, which was similar to the vehicle group” and the arthritis development ([2]; highest dose level (12.6 mg/kg), therapeutic i.p. from day 10) was “limited suppression”. For the same molecule, the “hind paw swelling versus vehicle” value ([2]; other Compound 2 dose groups (6.3, 3.2, 1.6 mg/kg)) was “no significant differences”.
